According to US7094909B2, “HIV protease inhibitors, compositions containing the same, their pharmaceutical uses and materials for their synthesis” (priority 2001, dated 2006):
pEC50: −log10 of the molar value.

How the values were obtained:
[1] = system: HIV-1 (HIV-1 RF, HIV-1 NL4-3) in CEM-SS / MT-2 cells; assay: Cytopathic effect (CPE) inhibition assay (XTT/MTT dye reduction); format: cell-based; conditions: Human immunodeficiency virus 1, NL43; read-out: Ave CPE EC50
Summary of the method: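 CEM-SS or MT-2 cells were infected with HIV-1 RF or NL4-3 (moi 0.025–0.819) and plated at 2×10^4 cells/well with half-log compound dilutions for 6 days. Viability was read by XTT formazan at 450 nm after 4 h. EC50 restores formazan to 50% of uninfected untreated cells, CC50 halves it in uninfected cells, and TI = CC50/EC50.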

461, 84V, 90M virus = assay: Phenotypic susceptibility assay at Virologic, Inc.; format: cell-based, HIV-1; conditions: Human immunodeficiency virus 1, read-out: EC50 or IC50 (mM), values with asterisk (IC50)
Description: Compounds were tested in phenotypic susceptibility assays at Virologic, Inc., (See Petropoulos C. J., Parkin N. T., Limoli K. L., Lie Y. S., Wrin T., Huang W., Tian H., Smith D., Winslow G. A., Capon D J, Whitcomb J M. 2000, “A novel phenotypic drug susceptibility assay for human immunodeficiency virus type 1,” Antimicrob Agents Chemother 44(4):920–928) or using the assay described here. MT-2 cells were infected with either HIV-1 NL4-3 or HIV-1 NL4-3([…]) and incubated in the presence of serial 0.5 log dilutions of test compounds. Three days later, culture supernatants were collected and virus production, as determined by p24 ELISA, was assayed. Percent inhibition was calculated as p24 concentration in compound-treated samples as compared to infected, compound-free controls. Inhibition of viral replication is determined by measuring reduction in HIV p24 present in the culture supernatant, using a Beckman-Coulter p24HIV-1 Ag EIA kit and following the supplied protocol. Absorbance is read on a MRX microplate reader (Dynex Technologies). The EC50 was calculated as the concentration of compound that effected a decrease in the p24 production by infected, compound-treated cells to 50% of that produced by infected, compound-free cells.

[2] = biological target: T1, HIV-1 protease (Q7S mutant form) (Human immunodeficiency virus type 1 group M subtype B, UniProt P04585, Q495S); assay: HIV-1 Protease RET assay; format: biochemical; conditions: Ave. Ki (nM), RET assay, Q7S enzyme, Morrison tight binding fit
T1 construct: made in house
Summary of the method: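 Q7S HIV-1 protease, refolded from urea, 2 nM active dimer with 5 μM EDANS/DABCYL peptide cleaved at Tyr-Pro; fluorescence 340/490 nm. 12 min at 37 °C in 0.1M sodium acetate pH 4.8, 1M NaCl, 10% DMSO. Ki from Morrison tight-binding fit.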

For Cc1c(O)cccc1C(=O)N[C@@H](Cc1ccccc1)[C@H](O)C(=O)N1CSC(C)(C)[C@H]1C(=O)N[C@H]1CCc2ccccc21 [Example A35, (R)-3-((2S,3S)-2-Hydroxy-3-{[1-(3-hydroxy-2-methyl-phenyl)-methanoyl]-amino}-4-phenyl-butanoyl)-5,5-dimethyl-thiazolidine-4-carboxylic acid (S)-indan-1-ylamide], the pEC50 [1] was 7.80, the melting point was 204 to 206 °C and the IC50 (461, 84V, 90M virus) was 41 nM. The Ki [2] was less than 0.1 nM.

CC1(C)SCN(C(=O)[C@@H](O)[C@H](Cc2ccccc2)NC(=O)O[C@H]2CCOC2)[C@@H]1C(=O)N[C@H]1CCCc2ccccc21 [Example B33, ((1S,2S)-1-Benzyl-3-{(R)-5,5-dimethyl-4-[(S)-(1,2,3,4-tetrahydro-naphthalen-1-yl)carbamoyl]-thiazolidin-3-yl}-2-hydroxy-3-oxo-propyl)-carbamic acid (S)-(tetrahydro-furan-3-yl) ester] gave a pEC50 [1] of 7.35, a melting point of 103 to 105 °C and an IC50 (461, 84V, 90M virus) of 604 nM. For the same compound, the Ki [2] was less than 0.1 nM.
